From US20250230159A1, “FUSED HETEROCYCLIC COMPOUNDS AS MODULATORS OF RAS SIGNALLING” (Shenzhen Ionova Life Science Co., Ltd., priority 2022, published 2025)
Where two headings read alike, the source gives them in different places.

How the values were obtained:
[1] = biological target: KRAS-G12C/SOS1 interaction (Homo sapiens (Human), UniProt Q07889); test: Protein-Protein Interaction (PPI) assay, SOS1-KRAS binding assay kit (HTRF)
Description: This Example illustrates that exemplary compounds of the present invention blockade the interaction of SOS1 to KRAS protein.
The ability of a compound of Formula (I) to block the interaction of SOS1 to KRAS was measured using a SOS1-KRAS binding assay kit (CAT #63ADK000CB16PEG, Cisbio). Utilizing HTRF (Homogeneous Time-resolved Fluorescence) technology, the assay enables simple and rapid characterization of compound and antibody blockers in a high throughput format. The interaction between Tag1-SOS1 and Tag2-KRAS-G12C is detected by using anti-Tag1-Terbium antibody (HTRF donor) and anti-Tag2-XL665 antibody (HTRF acceptor). When the donor and acceptor antibodies are brought into close proximity due to SOS1 and KRAS-G12C binding, excitation of the donor antibody triggers fluorescent resonance energy transfer (FRET) towards the acceptor antibody, which in turn emits specifically at 665 nm. This specific signal is directly proportional to the extent of KRAS-G12C/SOS1 interaction.
The assay was carried according to the manufacturer's instructions. Compounds at an initial concentration of 10 mM in DMSO were first serially diluted on a 384-well plate using assay buffer at a ratio of 1:3 for a total of 9 concentrations with each of a volume of 20 μL. Blank buffer was included as the negative control. The final compound solution was in the buffer solution with 1% DMSO. Then, in each well of a 384-well plate, a solution of 2 μL compound solution, 4 μL tagged SOS1 and KRAS (G12C) protein stocks, respectively, and 10 μM GTP was incubated for 15 min. 10 μL mixture of […] antibody and anti-Tag1-Terbium antibody was introduced to each individual well. After 2 hours incubation at room temperature, fluorescence readout was measured with a Pelkin Elmer multiple plate reader VICTOR Nivo.
Excitation was from over a range of 245-395 nm, and emission from the donor (emission 1) was detected at […] and emission from the acceptor (emission 2) was detected at (606.5-623.5) nm. The HTRF ratio was calculated using the formula: (emission 1 @665 nm/emission 2 @620 nm)×10000. Thus, compounds blocking KRAS-G12C/SOS1 interaction will cause a reduction in HTRF signal ratio. The IC50 values were then calculated with the Graph pad Prism software.

pERK in Hela cells = test: Phospho-ERK (p-ERK) assay in Hela cells; assay type: cell-based; conditions: Homo sapiens, β-actin normalized
Description: This Example illustrates that exemplary compounds of the present invention prevent KRas-mediated GTP nucleotide exchange mediated by SOS1 to inhibit KRas activity, thereby inhibiting the generation of the downstream effector pERK.
Hela cells (23,000/w) were seeded in a black clear flat bottom 96-well cell culture plate (Corning, #3904) and incubated at 37° C. overnight. At day 2, cells were dosed with compounds of Formula (I) with a 10 μM starting concentration and serially diluted 3× for a total of 9 concentrations. The cells were incubated for 1 hour with the compounds solubilized in DMSO at 37° C. Cells were immediately fixed by adding 100 μL of 8% formaldehyde to all wells in a fume hood and the plates were incubated for 1 hr at room temperature. The formaldehyde was discarded from the plates and washed 5 times and each time for 5 min with 200 μL of Triton Washing Solution (0.1% Triton in PBS) each time to permeabilize the cells. Cells were then blocked with 150 μL of Odyssey blocking buffer (LI-COR Biosciences #927-50010) at room temperature on a shaker. The blocking buffer was discarded and 50 μL of primary antibodies pERK (cell signaling Technology #4370; Rabbit, 1:500) and β-actin (AF5001; Mouse, 1:2000) diluted in Odyssey blocking buffer was added. The plates were incubated overnight at 4° C. on a shaker.
On day 3, the primary antibody solution was removed. Each plate was washed 5× times with 200 μL of 1×PBST (PBS+0.1% Tween 20) and incubated with 50 μL of secondary antibodies: Anti-Rabbit (LI-COR Biosciences #926-32211) and Anti-Mouse (LI-COR Biosciences #68070) at 1:1000 dilution in Odyssey blocking buffer at room temperature on a shaker for 1 hour (protected from light). The secondary antibody solution as removed and each plate was washed with PBST 5× times. Any liquid remaining was discarded and the plate was imaged using the Licor Odyssey machine according to the manufacturer's instruction, using a set focus length at 3.5 mm and both 800 nm and 700 nm filters. The 3-actin normalized scan values for each well were divided by the average of vehicle wells to get the % of p-ERK inhibition. The IC50 values were then calculated with the Graph pad Prism software. In general, p-ERK IC50 data are in line with the PPI IC50 data.

KRAS-G12C/SOS1 interaction, sequence (Q07889 whole entry, stated change not applied): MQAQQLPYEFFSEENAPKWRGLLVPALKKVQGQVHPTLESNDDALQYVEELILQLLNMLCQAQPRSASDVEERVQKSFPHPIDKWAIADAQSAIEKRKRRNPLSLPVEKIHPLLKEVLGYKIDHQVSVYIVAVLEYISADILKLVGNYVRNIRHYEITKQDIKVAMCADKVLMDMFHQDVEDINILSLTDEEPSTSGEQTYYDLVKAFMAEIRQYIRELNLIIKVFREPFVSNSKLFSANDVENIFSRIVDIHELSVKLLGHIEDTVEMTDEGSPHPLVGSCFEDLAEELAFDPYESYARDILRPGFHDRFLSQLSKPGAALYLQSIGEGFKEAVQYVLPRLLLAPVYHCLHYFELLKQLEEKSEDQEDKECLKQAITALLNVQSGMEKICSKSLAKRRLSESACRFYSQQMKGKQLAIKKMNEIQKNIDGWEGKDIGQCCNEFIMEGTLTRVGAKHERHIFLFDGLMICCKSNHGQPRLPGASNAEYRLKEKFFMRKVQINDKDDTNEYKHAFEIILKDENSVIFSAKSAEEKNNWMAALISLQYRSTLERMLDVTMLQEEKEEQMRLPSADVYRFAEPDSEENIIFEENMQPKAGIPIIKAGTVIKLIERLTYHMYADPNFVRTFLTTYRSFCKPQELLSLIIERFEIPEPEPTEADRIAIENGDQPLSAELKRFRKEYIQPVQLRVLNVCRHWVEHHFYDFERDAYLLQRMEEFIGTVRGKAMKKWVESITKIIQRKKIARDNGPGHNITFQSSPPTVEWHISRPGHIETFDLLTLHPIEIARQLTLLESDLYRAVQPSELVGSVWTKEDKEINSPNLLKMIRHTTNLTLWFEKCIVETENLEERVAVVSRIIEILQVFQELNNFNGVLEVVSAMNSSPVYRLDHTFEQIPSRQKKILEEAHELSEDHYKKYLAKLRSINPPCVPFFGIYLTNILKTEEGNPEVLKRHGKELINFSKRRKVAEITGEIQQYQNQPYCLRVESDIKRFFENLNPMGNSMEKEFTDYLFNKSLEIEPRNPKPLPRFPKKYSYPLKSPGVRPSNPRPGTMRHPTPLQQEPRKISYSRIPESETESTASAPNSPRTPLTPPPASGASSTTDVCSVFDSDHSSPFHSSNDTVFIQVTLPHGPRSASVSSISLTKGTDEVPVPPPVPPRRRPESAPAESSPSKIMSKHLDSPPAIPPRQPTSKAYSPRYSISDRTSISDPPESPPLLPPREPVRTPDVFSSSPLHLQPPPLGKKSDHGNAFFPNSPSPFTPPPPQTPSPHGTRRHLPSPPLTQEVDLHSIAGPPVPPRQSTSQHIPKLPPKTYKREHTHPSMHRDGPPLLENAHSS

Structure (SMILES)	IC50 ([1]; read-out: PPI Assay IC50)	IC50 [1]	IC50 (pERK in Hela cells; Table 1, 1 hour with compound)	IC50 (pERK in Hela cells; Table 2, 1 hour with compound)
CC(=O)N1CCC(F)(c2cc3c(N[C@H](C)c4cccc(C(F)F)c4F)nc(C)nc3n3cnnc23)CC1 [Example 114, (R)-1-(4-(4-((1-(3-(difluoromethyl)-2-fluorophenyl)ethyl)amino)-2-methyl-[1,2,4]triazolo[4′,3′:1,6]pyrido[2,3-d]pyrimidin-6-yl)-4-fluoropiperidin-1-yl)ethan-1-one]	< 100 nM		< 100 nM	
Cc1nc(N[C@H](C)c2cccc(C(F)F)c2F)c2cc(C(=O)N3C4CCC3CN(C)C4)c3ncnn3c2n1 [Example 37]	< 100 nM		> 100 nM	
C[C@@H](Nc1ncnc2c1cc(C1CCN(S(C)(=O)=O)CC1)c1nnnn12)c1cccc(C(F)F)c1F [Example 146]	< 100 nM		< 100 nM	
C[C@@H](Nc1ncnc2c1cc(N1CCOC1=O)c1nncn12)c1cccc(C(F)F)c1F [Example 167]	< 100 nM		< 100 nM	
COC1(c2cc3c(N[C@H](C)c4cccc(C(F)F)c4F)ncnc3n3cnnc23)CCN(C(C)=O)CC1 [Example 119]	< 100 nM		< 100 nM	
Cc1nc2c(N3CC4(COC4)C3)cc3c(N[C@H](C)c4cccc(C(F)F)c4F)ncnc3n2n1 [Example 174]	< 100 nM		< 100 nM	
Cc1nc(N[C@H](C)c2cccc(C(F)F)c2F)c2cc(C3CCN(CCS(C)(=O)=O)CC3)c3nncn3c2n1 [Example 71]	< 100 nM		> 100 nM	
C[C@@H](Nc1ncnc2c1cc(N1CC(C(=O)N(C)C)C1)c1nnnn12)c1cccc(C(F)F)c1F [Example 97]	< 100 nM		> 100 nM	
COC1(c2cc3c(N[C@H](C)c4cccc(C(F)F)c4F)nc(C)nc3n3cnnc23)CCN(C(C)=O)C1 (stereo partly drawn) [Example 120]	< 100 nM		< 100 nM	
C[C@@H](Nc1ncnc2c1cc(N1C(=O)COC[C@@H]1C)c1nncn12)c1cccc(C(F)F)c1F [Example 168]	< 100 nM		< 100 nM	
C[C@@H](Nc1ncnc2c1cc(N1CCOCC1)c1ncnn12)c1cc(N)cc(C(F)(F)F)c1 [Example 153, (R)—N-(1-(3-amino-5-(trifluoromethyl)phenyl)ethyl)-4-morpholino-[1,2,4]triazolo[1′,5′:1,6]pyrido[2,3-d]pyrimidin-6-amine]	< 100 nM		> 100 nM	
Cc1nc(N[C@H](C)c2cccc(C(F)F)c2F)c2cc(C3(C(F)F)CC3)c3nc(C)nn3c2n1 [Example 171]	< 100 nM		< 100 nM	
COCC(=O)N1CCC(c2cc3c(N[C@H](C)c4cc(N)cc(C(F)(F)F)c4)nc(C)nc3n3nnnc23)CC1 [Example 147]	< 100 nM		> 100 nM	
COC1(c2cc3c(N[C@H](C)c4cccc(C(F)F)c4F)ncnc3n3nnnc23)CCN(C(C)=O)CC1 [Example 125]	< 100 nM		< 100 nM	
CCS(=O)(=O)N1CCC(c2cc3c(N[C@H](C)c4cccc(C(F)F)c4F)nc(C)nc3n3cnnc23)CC1 [Example 70]		> 100 nM		> 100 nM
COCCN1CCN(C(=O)c2cc3c(N[C@H](C)c4cc(N)cc(C(F)(F)F)c4)nc(C)nc3n3ncnc23)CC1 [Example 4]	< 100 nM		> 100 nM	
CC(=O)N1CCC(C)(c2cc3c(N[C@H](C)c4cccc(C(F)F)c4F)ncnc3n3nnnc23)CC1 [Example 132]	< 100 nM		< 100 nM	
CC(=O)N1CCC(C)(c2cc3c(N[C@H](C)c4cccc(C(F)F)c4F)nc(C)nc3n3nnnc23)CC1 [Example 131]	< 100 nM		< 100 nM	
CC(=O)N1CCC(O)(c2cc3c(N[C@H](C)c4cccc(C(F)F)c4F)ncnc3n3nnnc23)CC1 [Example 113]	< 100 nM		> 100 nM	
COC1(c2cc3c(N[C@H](C)c4cc(N)cc(C(F)(F)F)c4)ncnc3n3cnnc23)CCOCC1 [Example 123]	< 100 nM		< 100 nM	
Cc1nc(N[C@H](C)c2cc(N)cc(C(F)(F)F)c2)c2cc(N3CCOCC3)c3nncn3c2n1 [Example 85]	< 100 nM		< 100 nM	
CC(=O)N1CCC(O)(c2cc3c(N[C@H](C)c4cccc(C(F)F)c4F)ncnc3n3cnnc23)CC1 [Example 108]	< 100 nM		< 100 nM	
CC(=O)N1CCC(c2cc3c(N[C@H](C)c4cccc(C(F)F)c4F)ncnc3n3cnnc23)CC1 [Example 136, (R)-1-(4-(4-((1-(3-(difluoromethyl)-2-fluorophenyl)ethyl)amino)-[1,2,4]triazolo[4′,3′:1,6]pyrido[2,3-d]pyrimidin-6-yl)piperidin-1-yl)ethan-1-one]	< 100 nM		> 100 nM	

Second part, led by results:

IC50 ([1]; read-out: PPI Assay IC50)	IC50 [1]	Structure (SMILES)	IC50 (pERK in Hela cells; Table 1, 1 hour with compound)	IC50 (pERK in Hela cells; Table 2, 1 hour with compound)
< 100 nM		Cc1nc(N[C@H](C)c2cccc(C(F)F)c2F)c2cc(C(=O)N3CCCC34CCOC4)c3nnnn3c2n1 (stereo partly drawn) [Example 60]	> 100 nM	
< 100 nM		CC(=O)N1CCC(O)(c2cc3c(N[C@H](C)c4cccc(C(F)F)c4F)nc(C)nc3n3cnnc23)C1 (stereo partly drawn) [Example 109]	> 100 nM	
< 100 nM		Cc1nc(N[C@H](C)c2cccc(C(F)F)c2F)c2cc(N3CCOCC3)c3nnnn3c2n1 [Example 91, (R)—N-(1-(3-(difluoromethyl)-2-fluorophenyl)ethyl)-8-methyl-4-morpholinotetrazolo[1′,5′:1,6]pyrido[2,3-d]pyrimidin-6-amine]	< 100 nM	
< 100 nM		CC(=O)N1CCN(c2cc3c(N[C@H](C)c4cccc(C(F)F)c4F)nc(C)nc3n3nnnc23)CC1 [Example 92]	< 100 nM	
< 100 nM		Cc1nc2c(N3CCOCCC3=O)cc3c(N[C@H](C)c4cccc(C(F)F)c4F)ncnc3n2n1 [Example 158]	< 100 nM	
< 100 nM		Cc1nc(N[C@H](C)c2cccc(C(F)F)c2F)c2cc(N3CCOCC3)c3nncn3c2n1 [Example 74, (R)—N-(1-(3-(difluoromethyl)-2-fluorophenyl)ethyl)-2-methyl-6-morpholino-[1,2,4]triazolo[4′,3′:1,6]pyrido[2,3-d]pyrimidin-4-amine]	> 100 nM	
< 100 nM		Cc1nc(N[C@H](C)c2cccc(C(F)F)c2F)c2cc(C(=O)N3CCSCC3)c3ncnn3c2n1 [Example 17]	> 100 nM	
< 100 nM		C[C@@H](Nc1ncnc2c1cc(C(=O)N1CC3(COC3)C1)c1ncnn12)c1cccc(C(F)F)c1F [Example 42]	> 100 nM	
< 100 nM		Cc1nc(N[C@H](C)c2cccc(C(F)F)c2F)c2cc(C(=O)N3CCN(CCO)CC3)c3ncnn3c2n1 [Example 23]	> 100 nM	
< 100 nM		Cc1nc(N[C@H](C)c2cccc(C(F)F)c2F)c2cc(C(=O)N3CCOCC3)c3ncnn3c2n1 [Example 11]	> 100 nM	
< 100 nM		Cc1nc(N[C@H](C)c2cccc(C(F)F)c2F)c2cc(C(=O)N3CCN(C(=O)N(C)C)CC3)c3ncnn3c2n1 [Example 21]	> 100 nM	
< 100 nM		Cc1nc(N[C@H](C)c2cccc(C(F)F)c2F)c2cc(C(=O)N3CCN(C4COC4)CC3)c3ncnn3c2n1 [Example 24]	> 100 nM	
< 100 nM		CC(=O)N1CCC(O)(c2cc3c(N[C@H](C)c4cccc(C(F)F)c4F)nc(C)nc3n3nnnc23)CC1 [Example 112]	> 100 nM	
